Patent publication US9517245B2, “Sorafenib-microRNA combination therapy for liver cancer” (Mirna Therapeutics, Inc., priority 2014, dated 2016)
Read-outs that look alike come from different tables or passages of the source.

Legend:
[1] = test system: four liver cancer cell lines (Hep3b, HepG2, C3A, Huh7); test: combination studies in four liver cancer cell lines (overall synergy statements); format: cell-based; conditions: combination with miRNA mimic instead of sorafenib; data not shown
[2] = cited from earlier work
C3A liver cancer cells = test: sorafenib dose-effect, AlamarBlue cell proliferation; format: cell-based; conditions: 72 h, AlamarBlue 3 days post drug treatment, range from two or three experiments
Experimental: (§1) FIG. 2 illustrates dose-effect curves of sorafenib in liver cancer cells. Cells were seed in 96-well plate at 2000 cells per well. Three days after seeding the cells, sorafenib in a serial dilution from (0.1-100 μM) was added to the medium. Cell proliferation or percent inhibition was determined by AlamarBlue 3 days post drug treatment. Data were normalized to cells treated with sorafenib solvent (1% DMSO final concentration).
(§2) Sorafenib dose response curves were established in each cell line, and the cell proliferation was determined using AlamarBlue (Invitrogen) 3 days post drug treatment. Nonlinear regression and IC50 values were calculated using the GraphPad (Prism) software.
as §1, with “treatment, and IC50 values” for “treatment. Data”, “calculated using the GraphPad software.” for “normalized to cells treated with sorafenib solvent (1% DMSO final concentration).”

Hep3b liver cancer cells = test: as above; format: cell-based; conditions: Homo sapiens, 72 h, AlamarBlue 3 days post drug treatment, range from two or three experiments
Experimental: as §1, §2
as §1, with “treatment, and IC50 values” for “treatment. Data”, “calculated using the GraphPad software.” for “normalized to cells treated with sorafenib solvent (1% DMSO final concentration).”

HepG2 liver cancer cells = test: as above; format: cell-based; conditions: Homo sapiens, 72 h, AlamarBlue 3 days post drug treatment, range from two or three experiments
Experimental: as §1, §2
as §1, with “treatment, and IC50 values” for “treatment. Data”, “calculated using the GraphPad software.” for “normalized to cells treated with sorafenib solvent (1% DMSO final concentration).”

Huh7 liver cancer cells = test: as above; format: cell-based; conditions: Homo sapiens, Huh-7, 72 h, AlamarBlue 3 days post drug treatment, range from two or three experiments
Experimental: as §1, §2
as §1, with “treatment, and IC50 values” for “treatment. Data”, “calculated using the GraphPad software.” for “normalized to cells treated with sorafenib solvent (1% DMSO final concentration).”

With `O=c1[nH]cc(F)c(=O)[nH]1` [5-FU] the “synergy in combinations with other chemotherapeutic agents” value [1] was “synergy was not identified”.
In the case of `CNC(=O)c1cc(Oc2ccc(NC(=O)Nc3ccc(Cl)c(C(F)(F)F)c3)cc2)ccn1.Cc1ccc(S(=O)(=O)O)cc1` [Sorafenib tosylate, 4-(4-{3-[4-Chloro-3 (trifluoromethyl)phenyl]ureido}phenoxy) N-methylpyridine-2-carboxamide 4-methylbenzenesulfonate], the solubility ([2]; PEG 400) is given as “soluble”, the solubility ([2]; aqueous media) is given as “practically insoluble” and the solubility ([2]; ethanol) is given as “slightly soluble”.
Compound `CNC(=O)c1cc(Oc2ccc(NC(=O)Nc3ccc(Cl)c(C(F)(F)F)c3)cc2)ccn1` [Sorafenib] has an IC50 (C3A liver cancer cells) of 10.7 to 11.8 µM, an IC50 (Hep3b liver cancer cells) of 5.4 to 12.7 µM and an IC50 (HepG2 liver cancer cells) of 6.7 to 9 µM. It also gave an IC50 (Huh7 liver cancer cells) of 13.1 to 16 µM.
With `COc1cccc2c1C(=O)c1c(O)c3c(c(O)c1C2=O)C[C@@](O)(C(=O)CO)C[C@@H]3O[C@H]1C[C@H](N)[C@H](O)[C@H](C)O1` [doxorubicin] the “synergy in combinations with other chemotherapeutic agents” value [1] was “synergy was not identified”.
